Test results as given in patent publication US10252258B2, “Method for separating and concentrating target substance using novel cationic graft polymer” (priority 2014, dated 2019).

Test system: Escherichia coli
Experiment: Survival (viability) of bacteria collected using surfactant-containing solution
Format: cell-based
Details: 1% surfactant solution, 20° C.; then capture with 10% cationic graft polymer; one hundredth of suspension cultured 37° C. 18 hours; Control 1 >5000
Method: Escherichia coli precipitated on a separating agent in a blood collection tube is collected while being alive using a non-ionic surfactant-containing solution.
The produced Escherichia coli was added to a physiological saline solution in an amount of 2×10^8 cell/mL, and the resulting mixture was used as a sample.
To a blood collection tube, 3 mL of a bacterial solution in which Escherichia coli was dispersed in a physiological saline solution was added, and was centrifuged at 3000 rpm for five minutes. Thereafter, the supernatant was removed. Subsequently, 0.5 mL of a 1% surfactant solution was added to the blood collection tube, and a bacterial cell precipitated on a surface of a separating agent was dispersed.
The bacterial cell suspension was allowed to stand at 20° C. for 30 minutes and three hours. Thereafter, 100 μL of a 10% cationic graft polymer and 100 μL of a reaction solution were mixed and allowed to react for one minute. Thereafter, the resulting product was centrifuged for 30 seconds by a tabletop small centrifugal machine to obtain a precipitation pellet. The supernatant was removed, and the resulting precipitation pellet was completely dispersed with 500 μL of a dispersion solution to obtain a suspension. One hundredth of the suspension was cultured at 37° C. for 18 hours using a LB bacteria culture agar medium, and the number of living bacteria was confirmed by the number of colonies.
As a control, a physiological saline solution was used in place of the surfactant solution (Control 1).

Molecule | the number of colonies, allowed to stand for 30 minutes | the number of colonies, allowed to stand for 3 hours
sucrose laurate | 4000 | 3200
C[C@H](CCC(=O)NCCC[N+](C)(C)CCCS(=O)(=O)[O-])[C@H]1CC[C@H]2[C@@H]3[C@H](O)C[C@@H]4C[C@H](O)CC[C@]4(C)[C@H]3C[C@H](O)[C@]12C [CHAPS] | 84 | 61
